Assay [1] concerns the target T1, F508delCFTR (Homo sapiens, UniProt P13569, DEL508-508).
T1 construct: expressed in transfected cells; host or cells: CFBE41o- human lung-derived epithelial cells (CFBE41o-F508delCFTR-HRP), doxycycline-inducible
Nature of the assay: Cell Surface Expression-Horse Radish Peroxidase (CSE-HRP) assay, test compound with co-corrector.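 On Maximum % activity (with co-corrector): percent of 2 µM positive control corrector over DMSO; co-corrector is that same compound.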 It is filed as cell-based. Conditions: with 2 μM co-corrector; for Maximum % activity (with co-corrector): maximum at any tested concentration, normalized to positive control. The gist of the method:
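Surface-expression read-out: luminol luminescence from an HRP tag in the fourth exofacial loop of F508delCFTR, in doxycycline-induced (0.5 μg/mL, 72 h) CFBE41o- cells. Compound plus 2 μM co-corrector added for 18-24 h at 33° C., 8-point 3-fold series up to 20 μM. EC50 from a sigmoidal fit with variable Hill slope, normalised to positive control, triplicate plates.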

Assay [2] concerns the target T1, F508delCFTR. Nature of the assay: Cell Surface Expression-Horse Radish Peroxidase (CSE-HRP) assay, test compound without co-corrector.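 On Emax: percent of on-plate 2 µM positive control corrector response over DMSO.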 Conditions: for Emax: maximum at any tested concentration, normalized to positive control, without co-corrector; for EC50: test compound without co-corrector. It counts as cell-based. In outline:
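Compound without co-corrector was tested at eight 3-fold concentrations, top 20 μM, for 18-24 h at 33° C on doxycycline-induced (0.5 μg/mL, 72 h) CFBE41o- F508delCFTR-HRP cells. After DPBS washes, luminol luminescence gave % activity relative to on-plate positive control minus DMSO; EC50 came from triplicate-plate sigmoidal fitting.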

Where only a bound is given, the exact number is not on record here.

As a reminder, the EC50 is the concentration needed to bring the measured effect to its halfway point. Read a low EC50 as a more potent agent. A word on the Emax: it is the maximal effect, on the per cent scale that the assay sets.

T1 sequence (P13569 with tags, fused parts or gaps DEL508-508): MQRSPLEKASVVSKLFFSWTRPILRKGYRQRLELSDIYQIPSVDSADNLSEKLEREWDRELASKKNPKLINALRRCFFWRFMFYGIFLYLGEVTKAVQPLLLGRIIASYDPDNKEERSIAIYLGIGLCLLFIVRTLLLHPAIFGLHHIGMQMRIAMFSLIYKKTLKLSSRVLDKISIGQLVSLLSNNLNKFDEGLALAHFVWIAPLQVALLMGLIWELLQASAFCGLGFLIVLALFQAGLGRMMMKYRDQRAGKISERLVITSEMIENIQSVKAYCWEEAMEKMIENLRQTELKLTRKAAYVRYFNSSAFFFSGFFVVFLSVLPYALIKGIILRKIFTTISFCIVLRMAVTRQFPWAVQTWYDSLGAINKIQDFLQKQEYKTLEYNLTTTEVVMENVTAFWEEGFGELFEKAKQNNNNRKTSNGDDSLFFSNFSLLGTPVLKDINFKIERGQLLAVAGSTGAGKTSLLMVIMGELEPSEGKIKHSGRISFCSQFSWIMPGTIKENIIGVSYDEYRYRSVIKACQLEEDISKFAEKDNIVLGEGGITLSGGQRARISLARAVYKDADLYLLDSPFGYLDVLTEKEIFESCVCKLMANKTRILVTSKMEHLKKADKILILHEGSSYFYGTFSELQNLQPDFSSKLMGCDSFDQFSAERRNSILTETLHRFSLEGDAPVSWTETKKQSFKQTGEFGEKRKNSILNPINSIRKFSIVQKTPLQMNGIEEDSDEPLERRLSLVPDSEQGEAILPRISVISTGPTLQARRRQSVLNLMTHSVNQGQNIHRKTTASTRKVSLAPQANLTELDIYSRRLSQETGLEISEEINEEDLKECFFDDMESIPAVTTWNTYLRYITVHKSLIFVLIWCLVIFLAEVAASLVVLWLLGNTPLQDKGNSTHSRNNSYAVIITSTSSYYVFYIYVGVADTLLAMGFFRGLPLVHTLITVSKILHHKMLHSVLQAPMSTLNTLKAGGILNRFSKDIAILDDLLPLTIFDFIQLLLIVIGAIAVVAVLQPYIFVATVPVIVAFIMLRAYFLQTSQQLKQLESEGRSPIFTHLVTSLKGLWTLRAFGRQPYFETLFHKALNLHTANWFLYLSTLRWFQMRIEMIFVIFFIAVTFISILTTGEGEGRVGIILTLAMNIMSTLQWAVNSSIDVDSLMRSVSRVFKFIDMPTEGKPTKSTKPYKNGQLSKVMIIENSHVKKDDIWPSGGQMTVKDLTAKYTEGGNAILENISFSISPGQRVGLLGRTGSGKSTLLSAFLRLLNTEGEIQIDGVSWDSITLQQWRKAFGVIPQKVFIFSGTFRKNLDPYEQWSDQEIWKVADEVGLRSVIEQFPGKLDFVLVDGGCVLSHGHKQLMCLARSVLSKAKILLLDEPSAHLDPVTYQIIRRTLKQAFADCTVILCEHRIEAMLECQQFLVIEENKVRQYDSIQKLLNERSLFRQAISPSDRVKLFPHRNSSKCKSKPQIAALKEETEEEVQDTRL

`CCC1(C(=O)NS(=O)(=O)c2cccc3ncccc23)CCc2c(Cl)cccc21` (centres unmarked) [Example I-42, 4-chloro-1-ethyl-N-(quinoline-5-sulfonyl)-2,3-dihydro-1H-indene-1-carboxamide]: in assay [1], the “Maximum % activity (with co-corrector)” value was “+++ (≥350)” and the EC50 was less than 3 µM. In assay [2], this molecule came in with an Emax of no less than 150% and a concentration giving a half-maximal response (EC50) of less than 3 µM.
Regarding `CCC1(C(=O)NS(=O)(=O)c2cccc3sccc23)CCc2c(Cl)cccc21` (centres unmarked) [Example I-43, N-(1-benzothiophene-4-sulfonyl)-4-chloro-1-ethyl-2,3-dihydro-1H-indene-1-carboxamide], in assay [1], the “Maximum % activity (with co-corrector)” value was “+++ (≥350)” and the 50% effective concentration (EC50) is less than 3 µM. Besides, in assay [2], the Emax is 50 to 150% and the EC50 was less than 3 µM.
As to `COc1ccc(Br)c2c1C(C(=O)NS(=O)(=O)c1cccc3ncccc13)CC2` (centres unmarked) [Example I-44, 4-bromo-7-methoxy-N-(quinoline-5-sulfonyl)-2,3-dihydro-1H-indene-1-carboxamide], in assay [1], the “Maximum % activity (with co-corrector)” value is reported as “+++ (≥350)” and the EC50 was less than 3 µM. Also, in assay [2], the maximum response (Emax) is no less than 150% and the concentration for a half-maximal effect (EC50) is less than 3 µM.
`COCCOc1ccc(Br)c2c1CCCC2C(=O)NS(=O)(=O)c1cccc2ccccc12` (centres unmarked) [Example I-45, 8-bromo-5-(2-methoxyethoxy)-N-(naphthalene-1-sulfonyl)-1,2,3,4-tetrahydronaphthalene-1-carboxamide]: in assay [1], the “Maximum % activity (with co-corrector)” value is “+++ (≥350)” and the EC50 was less than 3 µM. Also, in assay [2], the Emax was no less than 150% and the 50% effective concentration (EC50) is less than 3 µM.
Turning to `COc1ccc(Br)c2c1[C@@H](C(=O)NS(=O)(=O)c1cccc3ncccc13)CC2` [Example I-46, (1S)-4-bromo-7-methoxy-N-(quinoline-5-sulfonyl)-2,3-dihydro-1H-indene-1-carboxamide], in assay [1], the “Maximum % activity (with co-corrector)” value is given as “+++ (≥350)” and the EC50 is less than 3 µM. In assay [2], this molecule came in with an Emax of no less than 150% and an EC50 of 3 to 10 µM.
In the same order, the values of `COc1ccc(Br)c2c1[C@H](C(=O)NS(=O)(=O)c1cccc3ncccc13)CC2` [Example I-47, (1R)-4-bromo-7-methoxy-N-(quinoline-5-sulfonyl)-2,3-dihydro-1H-indene-1-carboxamide] are “+++ (≥350)”, less than 3 µM, no less than 150% and less than 3 µM.
In the same order, the values of `COc1ccc(Br)c2c1CCC[C@@H]2C(=O)NS(=O)(=O)c1cccc2ccccc12` [Example I-48, (1S)-8-bromo-5-methoxy-N-(naphthalene-1-sulfonyl)-1,2,3,4-tetrahydronaphthalene-1-carboxamide] are “+++ (≥350)”, less than 3 µM, no less than 150% and 3 to 10 µM.
As for `COc1ccc(Br)c2c1CCC[C@H]2C(=O)NS(=O)(=O)c1cccc2ccccc12` [Example I-49, (1R)-8-bromo-5-methoxy-N-(naphthalene-1-sulfonyl)-1,2,3,4-tetrahydronaphthalene-1-carboxamide], in assay [1], the “Maximum % activity (with co-corrector)” value is recorded as “+++ (≥350)” and the EC50 was less than 3 µM. In assay [2], this molecule registered an Emax of no less than 150% and an EC50 of less than 3 µM.
For `COc1ccc(Br)c2c1C(C(=O)NS(=O)(=O)c1cccc3ncccc13)CCC2` (centres unmarked) [Example I-50, 5-bromo-8-methoxy-N-(quinoline-5-sulfonyl)-1,2,3,4-tetrahydronaphthalene-1-carboxamide], in assay [1], the “Maximum % activity (with co-corrector)” value is recorded as “+++ (≥350)” and the half-maximal effective concentration (EC50) was less than 3 µM. In addition, in assay [2], the Emax is no less than 150% and the EC50 is less than 3 µM.
For the molecule `COc1ccc(Br)c2c1[C@@H](C(=O)NS(=O)(=O)c1cccc3ccccc13)CC2` [Example I-51, (1S)-4-bromo-7-methoxy-N-(naphthalene-1-sulfonyl)-2,3-dihydro-1H-indene-1-carboxamide], in assay [1], the “Maximum % activity (with co-corrector)” value was “++ (≥150 and <350)”; the EC50 was in the range of 3 to 10 µM. In assay [2], the Emax was 50 to 150% and the EC50 lay in the range of 3 to 10 µM.
For `COc1ccc(Br)c2c1[C@H](C(=O)NS(=O)(=O)c1cccc3ccccc13)CC2` [Example I-52, (1R)-4-bromo-7-methoxy-N-(naphthalene-1-sulfonyl)-2,3-dihydro-1H-indene-1-carboxamide], in assay [1], the “Maximum % activity (with co-corrector)” value is on record as “+++ (≥350)” and the EC50 was less than 3 µM. In assay [2], this molecule displayed a maximum response (Emax) of no less than 150% and an EC50 of less than 3 µM.
With `CCOc1ccc(Br)c2c1C(C(=O)NS(=O)(=O)c1cccc3ccccc13)CC2` (centres unmarked) [Example I-53, 4-bromo-7-ethoxy-N-(naphthalene-1-sulfonyl)-2,3-dihydro-1H-indene-1-carboxamide], in assay [1], the “Maximum % activity (with co-corrector)” value is “+++ (≥350)” and the half-maximal effective concentration (EC50) is less than 3 µM. Further, in assay [2], the maximum response (Emax) is no less than 150% and the concentration giving a half-maximal response (EC50) is less than 3 µM.
Consider `CC(C)Oc1ccc(Br)c2c1C(C(=O)NS(=O)(=O)c1cccc3ccccc13)CC2` (centres unmarked) [Example I-54], for which, in assay [1], the “Maximum % activity (with co-corrector)” value is “+++ (≥350)” and the concentration giving a half-maximal response (EC50) is less than 3 µM. Further, in assay [2], the maximum response (Emax) is no less than 150% and the EC50 was in the range of 3 to 10 µM.
The matching figures for `O=C(NS(=O)(=O)c1cccc2ccccc12)C1CCc2c(Br)ccc(OCC3CC3)c21` (centres unmarked) [Example I-55, 4-bromo-7-(cyclopropylmethoxy)-N-(naphthalene-1-sulfonyl)-2,3-dihydro-1H-indene-1-carboxamide]: “+++ (≥350)”, less than 3 µM, no less than 150% and less than 3 µM.
The matching figures for `COc1ccc(Br)c2c1CCCC2C(=O)NS(=O)(=O)c1cccc2ncccc12` (centres unmarked) [Example I-56, 8-bromo-5-methoxy-N-(quinoline-5-sulfonyl)-1,2,3,4-tetrahydronaphthalene-1-carboxamide]: “+++ (≥350)”, less than 3 µM, no less than 150% and less than 3 µM.
In the case of `COc1ccc(-c2ccc(C)cc2)c2c1CCCC2C(=O)NS(=O)(=O)c1cccc2ccccc12` (centres unmarked) [Example I-57, 5-methoxy-8-(4-methylphenyl)-N-(naphthalene-1-sulfonyl)-1,2,3,4-tetrahydronaphthalene-1-carboxamide], in assay [1], the “Maximum % activity (with co-corrector)” value is reported as “+++ (≥350)” and the EC50 is less than 3 µM. Moreover, in assay [2], the Emax was no less than 150% and the EC50 was less than 3 µM.
As for `O=C(NS(=O)(=O)c1cccc2ccccc12)C1CCc2c(Br)ccc(OC(F)F)c21` (centres unmarked) [Example I-58, 4-bromo-7-(difluoromethoxy)-N-(naphthalene-1-sulfonyl)-2,3-dihydro-1H-indene-1-carboxamide], in assay [1], the “Maximum % activity (with co-corrector)” value is listed as “+++ (≥350)” and the EC50 is less than 3 µM. In assay [2], this molecule returned a maximal response (Emax) of no less than 150% and an EC50 of less than 3 µM.
`COc1ccc(Cl)c2c1C(C(=O)NS(=O)(=O)c1cccc3ccccc13)CC2` (centres unmarked) [Example I-59, 4-chloro-7-methoxy-N-(naphthalene-1-sulfonyl)-2,3-dihydro-1H-indene-1-carboxamide]: in assay [1], the “Maximum % activity (with co-corrector)” value is on record as “+++ (≥350)” and the EC50 is less than 3 µM. In assay [2], this molecule yielded an Emax of no less than 150% and an EC50 of 3 to 10 µM.
In the same order, the values of `COc1ccc(C2CCC2)c2c1CCC[C@@H]2C(=O)NS(=O)(=O)c1cccc2ccccc12` [Example I-60, (1S)-8-cyclobutyl-5-methoxy-N-(naphthalene-1-sulfonyl)-1,2,3,4-tetrahydronaphthalene-1-carboxamide] are “+++ (≥350)”, less than 3 µM, no less than 150% and less than 3 µM.
Consider `COc1ccc(C2CCC2)c2c1CCC[C@H]2C(=O)NS(=O)(=O)c1cccc2ccccc12` [Example I-61, (1R)-8-cyclobutyl-5-methoxy-N-(naphthalene-1-sulfonyl)-1,2,3,4-tetrahydronaphthalene-1-carboxamide], for which, in assay [1], the “Maximum % activity (with co-corrector)” value is “+++ (≥350)” and the EC50 was less than 3 µM. In assay [2], the maximum response (Emax) was no less than 150% and the 50% effective concentration (EC50) was less than 3 µM.
Turning to `CC[C@]1(C(=O)NS(=O)(=O)c2cccc3ccccc23)CCCc2cccc(Cl)c21` [Example I-64, (1S)-8-chloro-1-ethyl-N-(naphthalene-1-sulfonyl)-1,2,3,4-tetrahydronaphthalene-1-carboxamide], in assay [1], the “Maximum % activity (with co-corrector)” value is “+++ (≥350)” and the EC50 is less than 3 µM. In assay [2], the maximal response (Emax) was no less than 150% and the EC50 is less than 3 µM.
Regarding `CC[C@@]1(C(=O)NS(=O)(=O)c2cccc3ccccc23)CCCc2cccc(Cl)c21` [Example I-65, (1R)-8-chloro-1-ethyl-N-(naphthalene-1-sulfonyl)-1,2,3,4-tetrahydronaphthalene-1-carboxamide], in assay [1], the “Maximum % activity (with co-corrector)” value is reported as “+++ (≥350)” and the EC50 is less than 3 µM. In assay [2], the Emax was no less than 150% and the 50% effective concentration (EC50) was less than 3 µM.
As to `CCC1(C(=O)NS(=O)(=O)c2cccc3ccn(C)c23)CCc2c(Cl)cccc21` (centres unmarked) [Example I-66, 4-chloro-1-ethyl-N-(1-methyl-1H-indole-7-sulfonyl)-2,3-dihydro-1H-indene-1-carboxamide], in assay [1], the “Maximum % activity (with co-corrector)” value is “+++ (≥350)” and the EC50 is less than 3 µM. Further, in assay [2], the Emax is no less than 150% and the EC50 was less than 3 µM.

The values are drawn from patent US20180244611A1, “Modulators of the Cystic Fibrosis Transmembrane Conductance Regulator Protein and Methods of Use” (AbbVie S.à.r.l., priority 2017, published 2018).
